24 compounds from patent publication US7371748B2, “Benzothiazole derivatives” (Hoffman-La Roche Inc., priority 2003, dated 2008) can be followed below.

Molecules are shown by their SMILES. Like-named read-outs stand apart in the source and are kept apart here.

The term melting point denotes the temperature, or range, at which the solid turns liquid.

Series [1] concerns the target T1, human adenosine A2A receptor (Homo sapiens, UniProt P29274).
T1 construct: expressed in transfected cells; host or cells: CHO cells, Semliki Forest virus expression system; membrane preparation
The series is described as follows: [3H]-SCH-58261 binding assay, human adenosine A2A receptor. As to conditions: human A2A receptor recombinantly expressed in CHO cell membranes, [3H]-SCH-58261 1 nM, Ki from IC50 by Cheng-Prussoff equation. The procedure: Human Adenosine A2A Receptor
The human adenosine A2A receptor was recombinantly expressed in chinese hamster ovary (CHO) cells using the semliki forest virus expression system. Cells were harvested, washed twice by centrifugation, homogenized and again washed by centrifugation. The final washed membrane pellet was suspended in a Tris (50 mM) buffer containing 120 mM NaCl, 5 mM KCl, 2 mM CaCl2 and 10 mM MgCl2 (pH 7.4) (buffer A). The [^3H]-SCH-58261 (Dionisotti et al., […], Br J Pharmacol 121, 353; 1 nM) binding assay was carried out in 96-well plates in the presence of 2.5 μg of membrane protein, 0.5 mg of Ysi-poly-1-lysine SPA beads and 0.1 U adenosine deaminase in a final volume of 200 μl of buffer A. Non-specific binding was defined using xanthine amine congener (XAC; 2 μM). Compounds were tested at 10 concentrations from 10 μM-0.3 nM. All assays were conducted in duplicate and repeated at least two times. Assay plates were incubated for 1 hour at room temperature before centrifugation and then bound ligand determined using a Packard Topcount scintillation counter. IC50 values were calculated using a non-linear curve fitting program and Ki values calculated using the Cheng-Prussoff equation.

[2] abbreviates: read-out: Ha2 (pKi) (converted).

T1 sequence (P29274 whole entry): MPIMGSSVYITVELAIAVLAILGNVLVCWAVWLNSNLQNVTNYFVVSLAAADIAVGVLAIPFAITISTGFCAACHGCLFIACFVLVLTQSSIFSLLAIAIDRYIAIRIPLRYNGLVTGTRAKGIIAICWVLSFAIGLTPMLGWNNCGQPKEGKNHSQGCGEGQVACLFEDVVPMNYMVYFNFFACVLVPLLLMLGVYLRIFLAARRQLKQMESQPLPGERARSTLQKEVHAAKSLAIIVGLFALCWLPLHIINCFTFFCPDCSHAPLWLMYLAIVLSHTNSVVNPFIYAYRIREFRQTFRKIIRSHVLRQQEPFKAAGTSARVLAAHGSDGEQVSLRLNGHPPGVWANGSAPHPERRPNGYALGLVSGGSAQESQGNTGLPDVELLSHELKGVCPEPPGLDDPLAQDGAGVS

On to `COc1ccc(C2CCOCC2)c2sc(NC(=O)N(C)C3CC4CCC3O4)nc12` (racemic) [Example 26, (rac)-(exo)-3-[4-Methoxy-7-(tetrahydro-pyran-4-yl)-benzothiazol-2-yl]-1-methyl-1-(7-oxa-bicyclo[2.2.1]hept-2-yl)-urea], for which the melting point lay in the range of 197 to 200 °C. In series [1] (setting [2]), the Ki was 1 nM.

In the case of `COc1ccc(C2CCOCC2)c2sc(NC(=O)N(C)C3CC4CCC3O4)nc12` (single isomer, unassigned) [Example 55, (exo)-(+)-3-[4-Methoxy-7-(tetrahydro-pyran-4-yl)-benzothiazol-2-yl]-1-methyl-1-(7-oxa-bicyclo[2.2.1]hept-2-yl)-urea], the melting point lay in the range of 185 to 188 °C. The Ki in series [1] (setting [2]) was 1.26 nM.

`COc1ccc(C2CCOCC2)c2sc(NC(=O)N(C)C3CC4CCC3O4)nc12` (single isomer, unassigned) [Example 56, (exo)-(−)-3-[4-Methoxy-7-(tetrahydro-pyran-4-yl]-benzothiazol-2-yl)-1-methyl-1-(7-oxa-bicyclo[2.2.1]hept-2-yl)-urea]: the melting point lay within 155 to 190 °C. The Ki in series [1] (setting [2]) was 3.16 nM.

With `COc1ccc(C2COCCOC2)c2sc(NC(=O)c3ccc(C)s3)nc12` [Example 8, 5-Methyl-thiophene-2-carboxylic acid (7-[1,4]dioxepan-6-yl-4-methoxy-benzothiazol-2-yl)-amide], the Ki in series [1] (setting [2]) was 1 nM.

With `COc1ccc(C(=O)Nc2nc3c(OC)ccc(C4COCCOC4)c3s2)cc1` [Example 9, N-(7-[1,4]Dioxepan-6-yl-4-methoxy-benzothiazol-2-yl)-4-methoxy-benzamide], the Ki in series [1] (setting [2]) was 2 nM.

Take `COc1ccc(C2COCCOC2)c2sc(NC(=O)c3ccc(F)cc3)nc12` [Example 10, N-(7-[1,4]Dioxepan-6-yl-4-methoxy-benzothiazol-2-yl)-4-fluoro-benzamide]: the Ki in series [1] (setting [2]) was 1.26 nM.

As for `COc1ccc(C2COCCOC2)c2sc(NC(=O)C3CCCCC3)nc12` [Example 11, Cydohexanecarboxylic acid (7-[1,4]dioxepan-6-yl-4-methoxy-benzothiazol-2-yl)-amide], in series [1] (setting [2]), the Ki was 2.51 nM.

Consider `COc1ccc(C2COCCOC2)c2sc(NC(=O)c3cncn3C)nc12` [Example 14, 3-Methyl-3H-imidazole-4-carboxylic acid (7-[1,4]dioxepan-6-yl-4-methoxy-benzothiazol-2-yl)-amide], for which the Ki in series [1] (setting [2]) is 1 nM.

With `COc1ccc(C2COCCOC2)c2sc(NC(=O)c3ccncc3)nc12` [Example 15, N-(7-[1,4]Dioxepan-6-yl-4-methoxy-benzothiazol-2-yl)-isonicotinamide], the Ki in series [1] (setting [2]) was 2 nM.

`COc1ccc(C2CCOCC2)c2sc(NC(=O)N(C)C3CCN(C)CC3)nc12` [Example 20, 3-[4-Methoxy-7-(tetrahydro-pyran-4-yl)-benzothiazol-2-yl]-1-methyl-1-(1-methyl-piperidin-4-yl)-urea] yielded a melting point of 152 to 155 °C. In addition, in series [1] (setting [2]), the Ki was 2.51 nM.

Compound `COc1ccc(C2CCOCC2)c2sc(NC(=O)N(C)[C@H]3CC[C@H](O)CC3)nc12` [Example 21, trans-1-(4-Hydroxy-cyclohexyl)-3-[4-methoxy-7-(tetrahydro-pyran-4-yl)-benzothiazol-2-yl]-1-methyl-urea] had a melting point of 160 °C. Further, the Ki in series [1] (setting [2]) was 2.51 nM.

The compound `COc1ccc(C2CCOCC2)c2sc(NC(=O)N(C)[C@H]3CC[C@@H](O)CC3)nc12` [Example 22, cis-1-(4-Hydroxy-cyclohexyl)-3-[4-methoxy-7-(tetrahydro-pyran-4-yl)-benzothiazol-2-yl]-1-methyl-urea] showed a melting point of 191 to 193 °C. Moreover, in series [1] (setting [2]), the Ki was 2.51 nM.

In turn, `COc1ccc(C2CCOCC2)c2sc(NC(=O)N(C)[C@H]3CC[C@@](C)(O)CC3)nc12` [Example 23, 1-(4-cis-Hydroxy-4-methyl-cyclohexyl)-3-[4-methoxy-7-(tetrahydro-pyran-4-yl)-benzothiazol-2-yl]-1-methyl-urea] came in with a melting point of 211 to 213 °C. For the same compound, the Ki in series [1] (setting [2]) was 2 nM.

The compound `COc1ccc(C2CCOCC2)c2sc(NC(=O)N(C)CC3CCOC3)nc12` (stereo not shown) [Example 25, 3-[4-Methoxy-7-(tetrahydro-pyran-4-yl)-benzothiazol-2-yl]-1-methyl-1-(tetrahydro-furan-3-ylmethyl)-urea] yielded a melting point of 185 to 186 °C.

Turning to `COc1ccc(C2CCOCC2)c2sc(NC(=O)N3CCC4(CC3)OCCO4)nc12` [Example 29, 1,4-Dioxa-8-aza-spiro[4.5]decane-8-carboxylic acid [4-methoxy-7-(tetrahydro-pyran-4-yl)-benzothiazol-2-yl]-amide], the Ki in series [1] (Ha2 (pKi)) was 1.58 nM.

As for `COc1ccc(C2COCCOC2)c2sc(NC(=O)c3ccc(CCl)cc3)nc12` [Example 39, 4-Chloromethyl-N-(7-[1,4]dioxepan-6-yl-4-methoxy-benzothiazol-2-yl)-benzamide], the Ki in series [1] (setting [2]) is 1.58 nM.

As for `COc1ccc(C2COCCOC2)c2sc(NC(=O)c3cnn(C)c3)nc12` [Example 43, 1-Methyl-1H-pyrazole-4-carboxylic acid (7-[1,4]dioxepan-6-yl-4-methoxy-benzothiazol-2-yl)-amide], in series [1] (setting [2]), the Ki is 0.398 nM.

Take `CCC(=O)N(C)Cc1ccc(C(=O)Nc2nc3c(OC)ccc(C4COCCOC4)c3s2)cc1` [Example 44, N-(7-[1,4]Dioxepan-6-yl-4-methoxy-benzothiazol-2-yl)-4-[(methyl-propionyl-amino)-methyl]-benzamide]: the Ki in series [1] (setting [2]) was 2.51 nM.

For `COc1ccc(C2COCCOC2)c2sc(NC(=O)c3ccnc(N4CCCC4)c3)nc12` [Example 46, N-(7-[1,4]Dioxepan-6-yl-4-methoxy-benzothiazol-2-yl)-2-pyrrolidin-1-yl-isonicotinamide], in series [1] (setting [2]), the Ki was 2.51 nM.

`COc1ccc(C2COCCOC2)c2sc(NC(=O)c3ccnc(CN4CCCC4)c3)nc12` [Example 47, N-(7-[1,4]Dioxepan-6-yl-4-methoxy-benzothiazol-2-yl)-2-pyrrolidin-1-ylmethyl-isonicotinamide] showed a melting point of 108 to 111 °C.

`COCCN(C)Cc1cc(C(=O)Nc2nc3c(OC)ccc(C4COCCOC4)c3s2)ccn1` [Example 48, N-(7-[1,4]Dioxepan-6-yl-4-methoxy-benzothiazol-2-yl)-2-{[(2-methoxy-ethyl)-methyl-amino]-methyl}-isonicotinamide] returned a melting point of 100 to 107 °C.

As to `COc1ccc(C2CCOCC2)c2sc(NC(=O)[C@H]3CCCO3)nc12` [Example 51, (R)-Tetrahydro-furan-2-carboxylic acid [4-methoxy-7-(tetrahydro-pyran-4-yl)-benzothiazol-2-yl]-amide], the melting point was 158 to 161 °C.

With `COc1ccc(C2CCOCC2)c2sc(NC(=O)N(C)C3CCN(N(C)C)CC3)nc12` [Example 53, 1-(1-Dimethylamino-piperidin-4-yl)-3-[4-methoxy-7-(tetrahydro-pyran-4-yl)-benzothiazol-2-yl]-1-methyl-urea], the melting point is 167 to 170 °C.

On to `COc1ccc(C2CCOCC2)c2sc(NC(=O)CC3CCCO3)nc12` (stereo not shown) [Example 54, N-[4-Methoxy-7-(tetrahydro-pyran-4-yl)-benzothiazol-2-yl]-2-(tetrahydro-furan-2-yl)-acetamide], for which the melting point is 170 to 174 °C.
